Columns and labels:
[1] = Degree of polymerization of PAC by titration; type: physicochemical; conditions: native sucralfate
Protocol: Experiments were performed to determine the degree of polymerization in AF-LuCI by using the titration-based methods as described in Nail, S. L., White, J. L. & Hem, S. L. Structure of Aluminum Hydroxide Gel I: Initial Precipitate. Journal of Pharmaceutical Sciences 65, 1188-1191 (1976); and Hem, J. D. & Roberson, C. E. Form and stability of aluminum hydroxide complexes in dilute solution. Geol Surv Water-Supply Pap(US)(United States) (1967). The degree of polymerization of PACs in AF-LuCI and sucralfate molecule was determined using titration method based on the reversible protonation of hydroxo linkages in the PAC backbone. Approximately 10 mg of AF-LuCI were treated with 0.1N, 0.2N, 0.3N, 0.4N and 0.5N HCl solutions in different tubes. The samples were vortexed for 5 seconds followed by 1-hour incubation. The supernatant of each sample was then collected and the pH was measured using a pH meter. The same procedures were performed with sucralfate. The pH of the HCl solutions was measured as the control group and the difference between the control and the treated groups was calculated. The difference in pH corresponds to the proton consumption and the amount of hydroxo linkages that were then used to calculate the number of aluminum per molecule.

[2] = native sucralfate, USP specification; cited from earlier work
[3] = Dissolution in NaCl solutions; type: physicochemical; conditions: saturated NaCl solutions (~0.35 g/ml in water)
Description: […] This is a characteristic behavior of liquid complex coacervate system (See Wang, Q. & Schlenoff, J. B. The Polyelectrolyte Complex/Coacervate Continuum. Macromolecules 47, 3108-3116 (2014); de Kruif, C. G., Weinbreck, F. & de Vries, R. Complex coacervation of proteins and anionic polysaccharides. Current Opinion in Colloid & Interface Science 9, 340-349 (2004); Veis, A. & Aranyi, C. PHASE SEPARATION IN POLYELECTROLYTE SYSTEMS. I. COMPLEX COACERVATES OF GELATIN. J. Phys. Chem. 64, 1203-1210 (1960)).

[4] = Aluminum release in simulated gastrointestinal fluids; type: physicochemical
[5] = test system: normal Sprague-Dawley (SD) rats; assay: OGTT with sucralfate; type: in vivo, rat
Description: In contrast, sucralfate selectively binds to ulcerated mucosa where the bicarbonate secretion is malfunctioned (i.e. acidic), while on bicarbonate-neutralized healthy mucosa sucralfate forms loosely bound discrete solid aggregates attached on the surface rather than forming a continuous layer. […] The neutralized pH on mucus surfaces also compromised the barrier function of sucralfate due to the change of rheological properties.

[6] = Glucose barrier test on mucin-coated membrane in Franz cell; design: species or system porcine
Protocol: To examine the barrier properties of pastes formed from the new hydratable compositions in vitro, a mucin-coated membrane was prepared to mimic the mucus surface of the intestine. Specifically, a cellulose nitrate membrane (pore size: 0.2 μm, Whatman, Germany) was incubated in a 3% w/v porcine stomach mucin (SigmaAldrich, USA) solution in PBS (pH 7.4) and gently shaken for 2 hours at room temperature. The membrane was washed with distilled deionized water (DDW, pH 5.5) to remove the excess mucin solution. The mucin-coated membranes were used within 1 hour following preparation.
To measure the thickness of the mucin layer, the mucin-coated membrane was lyophilized and imaged using scanning electron microscope (SEM) and the thickness of randomly selected positions was examined (average mucin layer thickness: ˜100 μm). To test the nutrient barrier properties, 10 mg of sucralfate or AF-LuCI was added evenly to a mucin-coated membrane and vertically tilted for 1 minute. […]
The permeation tests were performed in triplicate for each material. The glucose concentration was measured using high performance liquid chromatography (HPLC, Agilent, USA) with an analytical C18 column (Zorbax Eclipse XDB-C18, Agilent). […]

[7] = Thickness of paste layer on mucus-coated cellulose nitrate membrane
Protocol: Five hundred milligrams of AF-LuCI (excess) was added onto mucus-coated cellulose nitrate membrane (disk shape with 2 cm diameter) and DDW (pH 5.5), SGF (pH 1.0), or SIF (pH 6.5) was added immediately. After AF-LuCI becomes a paste and flow to form a layer (3-5 minutes), supernatant was removed and the paste-coated membrane was quickly frozen in −80° C. freezer to measure the thickness. The thickness of the mucus-coated cellulose nitrate membrane without AF-LuCI was separately measured as a baseline.

Sprague-Dawley (SD) rats = assay: microCT imaging of coating in the GI tract after gavage; type: in vivo; conditions: gavage into the stomach, AF-LuCI 450 mg/kg rat, imaged after 1 hr
Protocol: Sprague-Dawley (SD) rats were gavaged into the stomach with hydrated AF-LuCI pastes and imaged using micro-computed tomography (microCT). AF-LuCI pastes could be visualized on gastro-intestinal tissues without additional contrast agents owing to the presence of aluminum. For these experiments, rats were fasted overnight and gavaged directly into the stomach with 450 mg/kg rat of AF-LuCI paste hydrated in 0.9 w/v % normal saline solution. After 1 hr and 5 hr, the rats were anesthetized using isoflurane and imaged using microCT. […] FIG. 18A is a coronal plane view of SD rats gavaged with AF-LuCI 1 hr before the imaging. AF-LuCI formed a layer in stomach, duodenum and proximal intestine. FIGS. 18B and 18C are 3-dimensional views of SD rats gavaged with AF-LuCI (FIG. 18B) 1 hr and (FIG. 18C) 5 hr before the microCT imaging. AF-LuCI is attached on stomach, duodenum and proximal intestine at least for 5 hrs after gavage while sucralfate only formed sparsely scattered aggregates on the healthy mucosa

number of aluminum ions per molecule (degree of polymerization of PAC) [1]: 56.1±3.0 aluminum per molecule | fraction dissolved [3]: Less than 5 w/w % | release of original aluminum content ([4]; exposed to an acidic fluid, e.g. gastric fluid, for AF-LuCI relative to the aluminum content of commercial sucralfate): about 15.0 w/w % | release of aluminum ([4]; simulated gastric fluid (SGF, pH 1.0)): 15 w/w % of total aluminum content | thickness of layer ([7]; SGF (pH 1.0)): ~250 μm | layer formation ([7]; distilled water or SIF): did not form any layer
Substance: sucralfate
USP regulation on the aluminum content [2]: 15.5-18.5 w/w % of the total weight | area under curve (AUC) in OGTT versus saline treated group [5]: no significant difference | glucose penetration blocked ([6]; SGF, 10 mg on membrane, 120 g/L glucose, 5 minutes): ~60% | glucose blocked ([6]; applied on mucus-coated membrane in pH 1.0, then solution of pH 4.0 added): 16.5% | layer formation in the GI tract (microCT) (Sprague-Dawley (SD) rats): did not form a layer

From patent US11666597B2, “Water-activated mucoadhesive compositions to reduce intestinal absorption of nutrients” (The Brigham and Women's Hospital, Inc., priority 2015, dated 2023)
